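Following 48 hours of exposure in 96-well plates, responses at five concentrations were used to interpolate endpoints linearly. TGI denotes the concentration required for complete inhibition of growth.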
What was measured:
Assay in all cases: NCI tumour cell line growth inhibition, 48 h
786-0 renal = tested on: 786-0 renal
A498 renal = tested on: A498 renal
A549 NSCLC = tested on: A549 NSCLC
ACHN renal = tested on: ACHN renal
BT-549 breast = tested on: BT-549 breast
CAKI-1 renal = tested on: CAKI-1 renal
CCRF-CEM leukemia = tested on: CCRF-CEM leukemia
COLO 205 colon = tested on: COLO 205 colon
DU-145 prostate = tested on: DU-145 prostate
EKVX NSCLC = tested on: EKVX NSCLC
HCT-116 colon = tested on: HCT-116 colon
HCT-15 colon = tested on: HCT-15 colon
HL-60(TB) leukemia = tested on: HL-60(TB) leukemia
HOP-62 NSCLC = tested on: HOP-62 NSCLC
HOP-92 NSCLC = tested on: HOP-92 NSCLC
HS 578T breast = tested on: HS 578T breast
HT29 colon = tested on: HT29 colon
IGROV1 ovarian = tested on: IGROV1 ovarian
K-562 leukemia = tested on: K-562 leukemia
KM12 colon = tested on: KM12 colon
LOX IMVI melanoma = tested on: LOX IMVI melanoma
M14 melanoma = tested on: M14 melanoma
MALME-3M melanoma = tested on: MALME-3M melanoma
MCF7 breast = tested on: MCF7 breast
MDA-MB-231 breast = tested on: MDA-MB-231 breast
MDA-MB-435 = tested on: MDA-MB-435
MDA-N = tested on: MDA-N
MOLT-4 leukemia = tested on: MOLT-4 leukemia
NCI-H226 lung = tested on: NCI-H226 lung
NCI-H23 lung = tested on: NCI-H23 lung
NCI-H460 lung = tested on: NCI-H460 lung
NCI-H522 lung = tested on: NCI-H522 lung
NCI/ADR-RES ovarian = tested on: NCI/ADR-RES ovarian
OVCAR-3 ovarian = tested on: OVCAR-3 ovarian
OVCAR-4 ovarian = tested on: OVCAR-4 ovarian
OVCAR-5 ovarian = tested on: OVCAR-5 ovarian
OVCAR-8 ovarian = tested on: OVCAR-8 ovarian
PC-3 prostate = tested on: PC-3 prostate
RPMI-8226 leukemia = tested on: RPMI-8226 leukemia
RXF 393 renal = tested on: RXF 393 renal
SF-268 CNS = tested on: SF-268 CNS
SF-295 CNS = tested on: SF-295 CNS
SF-539 CNS = tested on: SF-539 CNS
SK-MEL-2 melanoma = tested on: SK-MEL-2 melanoma
SK-MEL-28 melanoma = tested on: SK-MEL-28 melanoma
SK-MEL-5 melanoma = tested on: SK-MEL-5 melanoma
SK-OV-3 ovarian = tested on: SK-OV-3 ovarian
SN12C renal = tested on: SN12C renal
SNB-19 CNS = tested on: SNB-19 CNS
SNB-75 CNS = tested on: SNB-75 CNS
SR leukemia = tested on: SR leukemia
SW-620 colon = tested on: SW-620 colon
T-47D breast = tested on: T-47D breast
TK-10 renal = tested on: TK-10 renal
U251 CNS = tested on: U251 CNS
UACC-257 melanoma = tested on: UACC-257 melanoma
UACC-62 melanoma = tested on: UACC-62 melanoma
UO-31 renal = tested on: UO-31 renal
DLD-1 colon = tested on: DLD-1 colon
DMS 114 small cell lung = tested on: DMS 114 small cell lung
HCC-2998 colon = tested on: HCC-2998 colon
KM20L2 colon = tested on: KM20L2 colon
LXFL 529 NSCLC = tested on: LXFL 529 NSCLC
M19-MEL melanoma = tested on: M19-MEL melanoma
SNB-78 CNS = tested on: SNB-78 CNS
XF 498 CNS = tested on: XF 498 CNS

Measured: TGI

Nc1nc(N)nc(CCCc2nc(N)nc(N)n2)n1
not listed: DLD-1 colon | DMS 114 small cell lung | HCC-2998 colon | KM20L2 colon | LXFL 529 NSCLC | M19-MEL melanoma | SNB-78 CNS | XF 498 CNS
> 100 µM: all other assays above

Cc1cccc(N=C2NC(=O)C(CC(=O)Nc3cccc(C)c3C)S2)c1 (stereo unspecified)
not listed: A498 renal | BT-549 breast | CAKI-1 renal | DU-145 prostate | HCT-15 colon | HS 578T breast | K-562 leukemia | MCF7 breast | MDA-MB-231 breast | MDA-MB-435 | MDA-N | NCI-H522 lung | NCI/ADR-RES ovarian | PC-3 prostate | SF-539 CNS | SK-OV-3 ovarian | SR leukemia | T-47D breast
> 100 µM: all other assays above

Source: PubChem BioAssay (NCI)
